This is an account of results in US12528784B2, “Alkynyl-(heteroaryl)-carboxamide HCN1 inhibitors” (Hoffmann-La Roche Inc., priority 2019, dated 2026).

As usually defined, the pIC50 is −log10 of the IC50, conventionally taken in molar units. The low end stands for a large IC50, the high end for a small IC50.

Holding throughout (format): cell-based
One test deals with T1, HCN1 (Homo sapiens, UniProt O60741).
T1 construct: expressed in transfected cells
T1 sequence (O60741 1-890): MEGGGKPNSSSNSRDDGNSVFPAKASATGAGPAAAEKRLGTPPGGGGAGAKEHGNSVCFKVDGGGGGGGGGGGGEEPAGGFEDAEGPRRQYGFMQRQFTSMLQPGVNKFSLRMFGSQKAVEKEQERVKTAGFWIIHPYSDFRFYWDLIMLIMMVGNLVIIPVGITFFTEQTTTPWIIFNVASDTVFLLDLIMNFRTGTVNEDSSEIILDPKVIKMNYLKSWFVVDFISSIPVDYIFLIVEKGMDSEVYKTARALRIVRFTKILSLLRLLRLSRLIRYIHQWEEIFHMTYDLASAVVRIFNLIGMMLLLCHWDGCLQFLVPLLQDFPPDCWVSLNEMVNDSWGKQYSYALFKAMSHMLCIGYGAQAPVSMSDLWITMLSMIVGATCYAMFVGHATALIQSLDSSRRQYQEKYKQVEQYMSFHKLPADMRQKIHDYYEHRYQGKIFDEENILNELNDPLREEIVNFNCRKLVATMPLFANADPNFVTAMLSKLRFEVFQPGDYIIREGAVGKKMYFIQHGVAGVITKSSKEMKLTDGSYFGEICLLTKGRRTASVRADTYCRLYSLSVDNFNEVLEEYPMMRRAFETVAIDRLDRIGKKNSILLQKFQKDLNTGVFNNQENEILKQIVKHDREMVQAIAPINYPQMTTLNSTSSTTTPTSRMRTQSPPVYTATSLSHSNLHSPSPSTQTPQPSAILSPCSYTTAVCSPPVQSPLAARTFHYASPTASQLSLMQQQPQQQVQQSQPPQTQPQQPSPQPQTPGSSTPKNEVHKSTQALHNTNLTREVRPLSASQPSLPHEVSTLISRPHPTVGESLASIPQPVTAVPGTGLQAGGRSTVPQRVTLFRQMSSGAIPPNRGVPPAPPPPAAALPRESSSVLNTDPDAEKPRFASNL
As to the kind of experiment: HCN1 automated patch clamp current inhibition assay (Ionworks Barracuda). The settings on record: HEK-293 cells stably expressing HCN1; current inhibition during a hyperpolarizing pulse of -100 mV. The protocol:
(§1) In vitro, high-throughput cellular electrophysiology was employed to detect voltage- and use-dependence of compounds in single concentration screening and IC50 determination for library and medicinal chemistry profiling compounds in 384 well plates.
(§2) Cell cultures were maintained in DMEM/F12 cell growth media containing FBS and appropriate antibiotics at 37° C., 5% CO2 for a maximum of 20 passages. At a time point of 40-72 hours prior to assay, the expression of HCN protein in the cells is induced by addition of tetracyclin. Cells may be incubated at 27° C. for 2-24 hours of induction. […] Cells were harvested at 80% confluency and resuspended in extracellular buffer and added to wells. A freshly prepared Escin solution was added to intracellular buffer and applied to establish whole cell recording via perforated patch clampling by APC.
(§3) Currents through activated channels were measured directly by APC by employing hyperpolarizing voltage steps. The activation window was increased and stabilized by the addition of cell permeable Br-cAMP. Baselines were established for both use- and voltage-dependence protocols using a −30 mV holding potential and multiple test pulses at −100 mV or by 20 mV steps from −120 to 0 mV, respectively. Test compounds were added after baseline recordings followed by a 10 min incubation, voltage-dependency protocol recording, and use-dependency recording. Data was corrected for baseline and rundown (well based) and normalized for % inhibition (plate based). Five previously reported HCN inhibitors of varying potencies and selectivities and zatebradine were used for run to run and plate to plate quality controls. […] Percent inhibition was analysed at −80, −100, −120 mV of the voltage-dependency protocol and at pulse 0 and 50 of the use-dependency protocols. Selectivity was assessed against HCN2, HCN3, and HCN4 overexpressing cell lines using similar methods. As HCN4 has a slower activation than the other HCN channels, activation was extended to achieve steady state activation.
A general note: Patch clamp records ionic current or voltage across a cell membrane.

The next test deals with T2, HCN3 (Homo sapiens, UniProt Q9P1Z3).
T2 construct: expressed in transfected cells
T2 sequence (Q9P1Z3 1-774): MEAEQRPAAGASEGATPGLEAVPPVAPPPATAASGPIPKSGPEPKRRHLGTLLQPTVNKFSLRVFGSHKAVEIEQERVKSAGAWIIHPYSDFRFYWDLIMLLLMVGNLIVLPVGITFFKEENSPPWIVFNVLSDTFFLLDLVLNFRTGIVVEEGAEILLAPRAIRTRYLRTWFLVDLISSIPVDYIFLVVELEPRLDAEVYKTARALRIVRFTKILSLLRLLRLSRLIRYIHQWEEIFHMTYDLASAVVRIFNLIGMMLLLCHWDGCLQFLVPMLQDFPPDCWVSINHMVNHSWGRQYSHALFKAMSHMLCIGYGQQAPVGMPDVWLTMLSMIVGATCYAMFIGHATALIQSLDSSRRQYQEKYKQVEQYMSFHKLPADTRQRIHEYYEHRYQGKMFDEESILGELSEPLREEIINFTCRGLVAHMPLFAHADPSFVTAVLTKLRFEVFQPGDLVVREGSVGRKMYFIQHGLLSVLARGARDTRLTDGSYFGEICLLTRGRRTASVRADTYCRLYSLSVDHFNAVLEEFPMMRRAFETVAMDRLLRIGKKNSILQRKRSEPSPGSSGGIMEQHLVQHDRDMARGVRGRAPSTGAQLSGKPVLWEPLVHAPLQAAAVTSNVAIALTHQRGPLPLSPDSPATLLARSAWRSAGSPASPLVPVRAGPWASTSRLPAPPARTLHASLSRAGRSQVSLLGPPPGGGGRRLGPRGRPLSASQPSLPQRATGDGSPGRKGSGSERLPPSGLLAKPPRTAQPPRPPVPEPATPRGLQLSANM
Briefly: HCN3 automated patch clamp current inhibition assay (Ionworks Barracuda). As to conditions: HEK-293 cells stably expressing HCN3; current inhibition during a hyperpolarizing pulse of -100 mV. The protocol:
as §1, §2, §3

A further test has as its target T3, HCN4 (Homo sapiens, UniProt Q9Y3Q4).
T3 construct: expressed in transfected cells
T3 sequence (Q9Y3Q4 1-1203): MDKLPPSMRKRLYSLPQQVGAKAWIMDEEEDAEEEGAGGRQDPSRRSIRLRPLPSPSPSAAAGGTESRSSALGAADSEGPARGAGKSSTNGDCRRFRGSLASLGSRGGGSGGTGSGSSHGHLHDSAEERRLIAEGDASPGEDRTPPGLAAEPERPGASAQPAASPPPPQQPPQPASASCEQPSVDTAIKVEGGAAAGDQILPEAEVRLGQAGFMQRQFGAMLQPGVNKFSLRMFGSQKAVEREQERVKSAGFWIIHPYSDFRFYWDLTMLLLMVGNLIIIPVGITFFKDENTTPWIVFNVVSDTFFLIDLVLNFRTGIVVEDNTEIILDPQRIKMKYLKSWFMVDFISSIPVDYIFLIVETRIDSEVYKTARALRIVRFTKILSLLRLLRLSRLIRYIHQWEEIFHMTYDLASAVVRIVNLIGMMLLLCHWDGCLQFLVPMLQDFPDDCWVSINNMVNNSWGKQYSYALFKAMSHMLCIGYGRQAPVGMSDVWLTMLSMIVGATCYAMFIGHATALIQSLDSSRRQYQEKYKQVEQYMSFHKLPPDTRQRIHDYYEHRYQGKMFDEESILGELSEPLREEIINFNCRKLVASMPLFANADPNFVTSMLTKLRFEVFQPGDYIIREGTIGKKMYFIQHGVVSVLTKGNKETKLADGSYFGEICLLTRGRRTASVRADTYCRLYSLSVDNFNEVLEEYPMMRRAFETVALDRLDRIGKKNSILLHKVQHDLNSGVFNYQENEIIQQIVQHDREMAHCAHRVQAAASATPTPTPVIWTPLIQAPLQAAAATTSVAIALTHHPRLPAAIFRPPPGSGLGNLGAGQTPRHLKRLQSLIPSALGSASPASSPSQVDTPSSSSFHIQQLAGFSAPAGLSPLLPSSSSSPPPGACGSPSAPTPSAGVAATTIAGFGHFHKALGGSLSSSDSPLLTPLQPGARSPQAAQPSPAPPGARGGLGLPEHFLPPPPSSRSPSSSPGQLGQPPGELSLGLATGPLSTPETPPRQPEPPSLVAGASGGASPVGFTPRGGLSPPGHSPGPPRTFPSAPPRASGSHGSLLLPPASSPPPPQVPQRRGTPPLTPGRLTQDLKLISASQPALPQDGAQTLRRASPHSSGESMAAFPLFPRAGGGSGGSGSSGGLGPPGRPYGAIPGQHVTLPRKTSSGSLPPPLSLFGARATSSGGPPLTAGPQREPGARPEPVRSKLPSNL
As to the kind of experiment: HCN4 automated patch clamp current inhibition assay (Ionworks Barracuda). The settings on record: HEK-293 cells stably expressing HCN4; current inhibition during a hyperpolarizing pulse of -100 mV. The protocol:
as §1, §2, §3

The target in a further test is T4, HCN2 (Homo sapiens, UniProt Q9UL51).
T4 construct: expressed in transfected cells
T4 sequence (Q9UL51 1-889): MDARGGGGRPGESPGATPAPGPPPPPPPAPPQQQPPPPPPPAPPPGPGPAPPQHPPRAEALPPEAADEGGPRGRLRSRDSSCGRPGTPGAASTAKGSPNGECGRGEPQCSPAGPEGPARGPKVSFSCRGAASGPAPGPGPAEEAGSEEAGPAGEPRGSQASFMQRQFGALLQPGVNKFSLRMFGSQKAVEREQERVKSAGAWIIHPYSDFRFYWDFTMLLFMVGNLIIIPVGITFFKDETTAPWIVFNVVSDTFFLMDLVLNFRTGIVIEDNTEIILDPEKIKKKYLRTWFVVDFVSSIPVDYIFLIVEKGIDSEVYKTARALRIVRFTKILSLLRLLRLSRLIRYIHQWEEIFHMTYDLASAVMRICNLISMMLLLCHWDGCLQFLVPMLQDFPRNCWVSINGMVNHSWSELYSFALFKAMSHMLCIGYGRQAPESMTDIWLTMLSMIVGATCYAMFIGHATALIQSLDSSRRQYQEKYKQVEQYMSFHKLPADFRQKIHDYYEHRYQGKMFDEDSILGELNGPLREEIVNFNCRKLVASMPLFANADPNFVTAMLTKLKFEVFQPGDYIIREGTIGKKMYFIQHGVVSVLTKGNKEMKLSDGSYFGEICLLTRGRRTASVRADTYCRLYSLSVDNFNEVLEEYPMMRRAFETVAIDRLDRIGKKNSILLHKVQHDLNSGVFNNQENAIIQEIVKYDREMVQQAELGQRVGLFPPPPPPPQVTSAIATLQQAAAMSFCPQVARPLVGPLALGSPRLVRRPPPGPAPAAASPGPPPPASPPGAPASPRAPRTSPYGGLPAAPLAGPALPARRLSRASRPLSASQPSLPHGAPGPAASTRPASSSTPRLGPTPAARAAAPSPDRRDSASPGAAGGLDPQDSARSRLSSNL
Briefly: HCN2 automated patch clamp current inhibition assay (Ionworks Barracuda). The settings on record: HEK-293 cells stably expressing HCN2; current inhibition during a hyperpolarizing pulse of -100 mV. The protocol:
as §1, §2, §3

pIC50: −log10 of the molar value.

As for `Cc1ccc(-n2c(C(N)=O)nc(C#Cc3cccc4c3OCO4)c2C)cn1` [Example 13, 4-(Benzo[d][1,3]dioxol-4-ylethynyl)-5-methyl-1-(6-methylpyridin-3-yl)-1H-imidazole-2-carboxamide], the pIC50 at HCN1 was 6.04; against HCN3 it was below 4.40.
`Cc1ccc(-n2c(C(N)=O)nc(C#Cc3cccc(Cl)n3)c2C)cn1` [Example 14, 4-((6-Chloropyridin-2-yl)ethynyl)-5-methyl-1-(6-methylpyridin-3-yl)-1H-imidazole-2-carboxamide]: the pIC50 against HCN1 is 5.71; against HCN3 it was below 4.40.
Consider `Cc1ccc(-n2c(C(N)=O)nc(C#Cc3cc(Cl)ccn3)c2C)cn1` [Example 18, 4-((4-Chloropyridin-2-yl)ethynyl)-5-methyl-1-(6-methylpyridin-3-yl)-1H-imidazole-2-carboxamide], for which the results for the pIC50 on HCN1 and against HCN3 were 5.39 and below 4.40, respectively.
Consider `Cc1ccc(-n2c(C(N)=O)nc(C#Cc3ccncc3)c2C)cn1` [Example 21, 5-Methyl-1-(6-methyl-3-pyridyl)-4-[2-(4-pyridyl)ethynyl]imidazole-2-carboxamide], for which the pIC50 against HCN1 was 4.95; at HCN3, below 4.40.
As for `Cc1cncc(-n2c(C(N)=O)nc(C#Cc3ccnc(Cl)c3C)c2C)c1` [Example 25, 4-[2-(2-Chloro-3-methyl-4-pyridyl)ethynyl]-5-methyl-1-(5-methyl-3-pyridyl)imidazole-2-carboxamide], the pIC50 at HCN1 was 6.90; at HCN3, 4.69; against HCN4 it was below 4.40.
Take `Cc1ccc(-c2c(C(N)=O)nc(C#Cc3ccnc(Cl)c3C)n2C)cn1` [Example 33]: the pIC50 on HCN1 is 6.02; against HCN3 it was below 4.40; at HCN4, below 4.40.
Consider `Cc1ccc(-n2c(C(N)=O)nc(C#Cc3ccccc3)c2C)cc1` [Example 37, 5-Methyl-4-(phenylethynyl)-1-(p-tolyl)-1H-imidazole-2-carboxamide], for which the pIC50 is 5.51 on HCN1 and below 4.40 against HCN3.
Take `Cc1c(C#Cc2ccnc(Cl)c2)nc(C(N)=O)n1-c1cccc(Cl)c1` [Example 40, 1-(3-Chlorophenyl)-4-((2-chloropyridin-4-yl)ethynyl)-5-methyl-1H-imidazole-2-carboxamide]: the pIC50 against HCN1 was 5.50; on HCN2, below 4.40; on HCN4 it was below 4.40.
For the compound `Cc1c(C#Cc2ccnc(Cl)c2)nc(C(N)=O)n1-c1ccc(F)cc1F` [Example 41, 4-(2-Chloro-pyridin-4-ylethynyl)-1-(2,4-difluoro-phenyl)-5-methyl-1H-imidazole-2-carboxylic Acid Amide], the figures for the pIC50 against HCN1 and against HCN3 were 4.76 and below 4.40, respectively.
The corresponding values for `Cc1ccc(-n2cc(C#Cc3ccnc(Cl)c3)nc2C(N)=O)cn1` [Example 43, 4-((2-Chloropyridin-4-yl)ethynyl)-1-(6-methylpyridin-3-yl)-1H-imidazole-2-carboxamide] are 5.60 and below 4.40.
